Consider 40 molecules from ChEMBL document CHEMBL3507680, “University of Dundee, Gates Library screen for HepG2 cell viability”.

The data set is described as follows: Human HepG2 cell viability assay in 384 well format. The class given is toxicity, cell-based. The arrangement: dose 125 nL, time 70.5 hour; cytotoxicity at 70.5 h: concentration not given beside the values. To be noted: HepG2 cells, read-out: Inhibition.
Regarding `Cc1nc(-c2ccccc2)nc2c1CCN(Cc1nccn1C)CC2`, the cytotoxicity at 70.5 h is -10.4%. Under `CN(C)C(=O)Cn1cnc2c(Br)cccc2c1=O` stands -10.4%; under `COc1ccc(-c2c(C)nn3c(=N)c(C#N)n[nH]c23)cc1`, -12.3%; under `COC(=O)c1cc2c(=O)[nH]c(=O)n(CCc3ccccc3)c2nc1C`, 4.39%. Consider `O=C(NCCCO)c1cc(-c2cc[nH]n2)n2ccccc12`, for which the cytotoxicity at 70.5 h is -102%. In the case of `CCOCCS(=O)(=O)N(CC)Cc1ccc(Cl)s1`, the cytotoxicity at 70.5 h is -11.4%. Regarding `CCOc1c(Cl)cccc1NS(=O)(=O)c1cc(C)c(C(=O)O)s1`, the cytotoxicity at 70.5 h was -4.74%. Under `O=C(O)c1nnn(-c2ccc(OC(F)(F)F)cc2)c1-c1ccncc1` stands -10.5%; under `CC(C)n1cc(S(=O)(=O)N2CCCCCC2)cn1`, -2.52%. Under `CC(=O)c1c(C)nn(S(=O)(=O)c2ccccc2)c1C` stands 3.79%; under `Nc1no[n+]([O-])c1C(=O)NCc1cccnc1`, -0.714%; under `Cc1nc(CN2CCC(N(C)Cc3noc(C4CC4)n3)C2)oc1C` (stereo not given), 4.91%.

As for `Cc1ccnc(NCCNC(=O)CCNC(=O)c2ccccc2F)c1`, the cytotoxicity at 70.5 h was found to be 1.01%. As for `CCn1cc(CN2CCN(CC(O)c3cc(C)ccc3C)CC2)c(C)n1` (stereo not given), the cytotoxicity at 70.5 h is -1.03%.

In the case of `CN1CCCc2sc(C(=O)NC3CC3)nc21`, the cytotoxicity at 70.5 h was -1.86%. Under `CCc1nc2c(c(N3CCOCC3)n1)CCN(C(=O)N1CCCC1)CC2` stands -6.31%; under `O=C(CN1CCOC(Cn2cccn2)C1)Nc1nncs1` (stereo not given), 34.7%. For `CCOCC1CN(Cc2cccs2)Cc2nn(C)cc21` (stereo not given) the value was -6.21%.

As for `CCC(=O)N1CCC2(COCc3cnc(NCc4ccco4)nc32)C1` (stereo not given), the cytotoxicity at 70.5 h amounted to 0.523%. For `CC(SCC(=O)N(C)CC(=O)NC1CC1)c1ccccc1F` (stereo not given) the value was -5.51%; for `Cc1ccn2cc(C(=O)N3CCCC(Cn4cc(CO)nn4)C3)nc2c1` (stereo not given), 17.5%. For `Cn1cc(C2CCCN2C(=O)Cn2c(=O)oc3ccccc32)cn1` (stereo not given) the value was -4.25%. For `Cc1cc(S(=O)(=O)Nc2cccc(I)c2)sc1C(=O)O` the value was 13.9%. Take `Cc1ccc(-c2cc(C(=O)NCCCc3csc(N)n3)[nH]n2)s1`: the cytotoxicity at 70.5 h is -3.12%.

With `CCn1cc(NC(=O)C2CCN(Cc3ccccc3C#N)CC2)cn1`, the cytotoxicity at 70.5 h was -1.61%. As for `Cc1cnccc1-c1cnn(CCNC(=O)c2ccncc2)c1C1CC1`, the cytotoxicity at 70.5 h amounted to 17.4%. As to `CCC1c2ccsc2CCN1C(=O)NCc1ccc(C)nc1` (stereo not given), the cytotoxicity at 70.5 h is -10.2%. For `CC(C)N1CCO[C@H]2CN(C(=O)c3ccsc3)C[C@H]21` the value was -7.23%; for `COCC(=O)NC(c1ccccc1)c1ccc2c(c1)CCCO2` (stereo not given), -16.4%. Under `CCc1ncc(CN2CCC(Oc3ccccc3OC)CC2)cn1` stands -0.00137%; under `Cc1nn(C)c(C)c1OCC(=O)NCC(O)c1ccsc1` (stereo not given), 0.375%; under `N#Cc1ccc(NCC(=O)Nc2ccn(Cc3cccnc3)n2)cc1`, -9.9%. Under `CCOCCC(=O)NC1(c2cccc(Br)c2)CC1` stands -3.83%; under `COc1cccn(CC(=O)N(C)CCOc2cc(C)cc(C)c2)c1=O`, 2.11%. In the case of `CC(CNC(=O)NCc1ccsc1)CC1(C)OCCO1` (stereo not given), the cytotoxicity at 70.5 h is -8.79%. As to `Cc1nccc(NCc2cncc3c2CCN(CC2CC2)C3)n1`, the cytotoxicity at 70.5 h amounted to 9.03%.

With `CS(=O)(=O)N1CCc2c(cccc2NC(=O)CC(F)(F)F)C1`, the cytotoxicity at 70.5 h is -1.76%. As to `CCc1cnc(N2C[C@H](OCc3csc(C)n3)[C@H]3COC[C@H]32)nc1`, the cytotoxicity at 70.5 h worked out at 2.07%. Under `O=C(Cc1c(F)cccc1Cl)Nc1cc(N2CCOCC2)ncn1` stands 9.04%; under `CCOCc1nc(-c2cccc(OC)c2OC)n(C2CCN(C)CC2)n1`, -1.78%.
